Reference: PMC6984337, “Targeting the Mycobacterium tuberculosis transpeptidase LdtMt2 with cysteine-reactive inhibitors including ebselen” (Chemical Communications (Cambridge, England), 2019)

target: T1, LdtMt2 (Mycobacterium tuberculosis, UniProt I6Y9J2); experiment: Fluorescence-based (fluorogenic probe 1) inhibition assay for LdtMt2; format: biochemical; settings: IC50 (μM, mean ± SD) 0 min
T1 sequence (I6Y9J2 56-408): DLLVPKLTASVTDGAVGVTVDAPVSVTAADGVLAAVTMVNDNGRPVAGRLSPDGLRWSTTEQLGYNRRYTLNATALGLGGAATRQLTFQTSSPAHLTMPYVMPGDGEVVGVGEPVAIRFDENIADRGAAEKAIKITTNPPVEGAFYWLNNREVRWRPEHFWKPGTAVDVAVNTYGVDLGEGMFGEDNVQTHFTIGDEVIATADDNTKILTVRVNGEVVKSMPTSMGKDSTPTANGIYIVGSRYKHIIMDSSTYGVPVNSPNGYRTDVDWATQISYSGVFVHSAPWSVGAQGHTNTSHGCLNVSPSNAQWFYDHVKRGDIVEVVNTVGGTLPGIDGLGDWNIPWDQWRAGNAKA

Row | Structure (SMILES) | IC50
1 | O=C1C=CC(=O)N1 [Compound 3, Maleimide] | 158 ± 9 µM

same assay, conditions: IC50 (μM, mean ± SD) 10 min

Row | Structure (SMILES) | IC50
2 | O=C1C=CC(=O)N1 [Compound 3, Maleimide] | 48.3 ± 3.6 µM

same assay, conditions: IC50 (μM, mean ± SD) 10 min, 10 min pre-incubation prior to addition of fluorogenic probe 1; LdtMt2 100 nM, probe 1 25 μM

Row | Structure (SMILES) | IC50
3 | O=c1c2ccccc2[se]n1-c1ccccc1 [Compound 4, Ebselen] | 0.159 ± 0.077 µM
4 | Br[Se]c1ccccc1 [Compound 5, PhSeBr] | 5.05 ± 0.35 µM
5 | Cl[Se]c1ccccc1 [Compound 6, PhSeCl] | 24.6 ± 0.9 µM
6 | O=[Se](O)c1ccccc1 [Compound 7, PhSe(O)OH] | 136 ± 17 µM
7 | CN(C)C(=S)SSC(=S)N(C)C [Compound 8, Thiram] | 2.93 ± 0.11 µM
8 | c1ccc(SSc2ccccn2)nc1 [Compound 9, Aldrithiol] | 5.35 ± 0.21 µM
9 | CCC(C)SSc1ncc[nH]1 (stereo not drawn) [Compound 10, PX-12] | 9.56 ± 0.25 µM

same assay, conditions: IC50 (μM, mean ± SD) 60 min

Row | Structure (SMILES) | IC50
10 | O=C1C=CC(=O)N1 [Compound 3, Maleimide] | 18.6 ± 0.7 µM

same assay, conditions: IC50 (μM, mean ± SD) 60 min; LdtMt2 100 nM, probe 1 25 μM

Row | Structure (SMILES) | IC50
11 | O=c1c2ccccc2[se]n1-c1ccccc1 [Compound 4, Ebselen] | 0.143 ± 0.014 µM
12 | Br[Se]c1ccccc1 [Compound 5, PhSeBr] | 2.02 ± 0.61 µM
13 | Cl[Se]c1ccccc1 [Compound 6, PhSeCl] | 20 ± 1.2 µM
14 | O=[Se](O)c1ccccc1 [Compound 7, PhSe(O)OH] | 93.2 ± 9.3 µM
15 | CN(C)C(=S)SSC(=S)N(C)C [Compound 8, Thiram] | 0.78 ± 0.029 µM
16 | c1ccc(SSc2ccccn2)nc1 [Compound 9, Aldrithiol] | 1.61 ± 0.03 µM
17 | CCC(C)SSc1ncc[nH]1 (stereo not drawn) [Compound 10, PX-12] | 2.48 ± 0.1 µM

same assay, conditions: read-out: IC50 (μM, mean ± SD) 10 min; 10 min pre-incubation prior to addition of fluorogenic probe 1; LdtMt2 100 nM, probe 1 25 μM

Row | Structure (SMILES) | IC50
18 | NC(=O)CI [Compound 2, Iodoacetamide] | 32.5 ± 1.4 µM

same assay, conditions: read-out: IC50 (μM, mean ± SD) 60 min; LdtMt2 100 nM, probe 1 25 μM

Row | Structure (SMILES) | IC50
19 | NC(=O)CI [Compound 2, Iodoacetamide] | 10.1 ± 0.7 µM

same assay, conditions: without pre-incubation prior to addition of fluorogenic probe 1; LdtMt2 100 nM, probe 1 25 μM; read-out: IC50 (μM, mean ± SD) 0 min

Row | Structure (SMILES) | IC50
20 | NC(=O)CI [Compound 2, Iodoacetamide] | 129 ± 14 µM
21 | O=c1c2ccccc2[se]n1-c1ccccc1 [Compound 4, Ebselen] | 0.36 ± 0.02 µM
22 | Br[Se]c1ccccc1 [Compound 5, PhSeBr] | 11.8 ± 1.3 µM
23 | Cl[Se]c1ccccc1 [Compound 6, PhSeCl] | 62.8 ± 2.2 µM
24 | O=[Se](O)c1ccccc1 [Compound 7, PhSe(O)OH] | 309 ± 7 µM
25 | CN(C)C(=S)SSC(=S)N(C)C [Compound 8, Thiram] | 7.01 ± 0.29 µM
26 | c1ccc(SSc2ccccn2)nc1 [Compound 9, Aldrithiol] | 22.1 ± 0.7 µM
27 | CCC(C)SSc1ncc[nH]1 (stereo not drawn) [Compound 10, PX-12] | 27.2 ± 0.5 µM

target: T1, LdtMt2; experiment: High-throughput (RapidFire) protein mass spectrometry of covalent adduct formation with LdtMt2; format: biochemical; settings: LdtMt2 3 µM with two equivalents (6 µM) of inhibitor, 50 mM Tris pH 7.5
Experimental: Inhibition assays were performed in flat-bottomed 384-well μ-clear plates (Greiner Bio-One) with a final volume of 25 μL, and using 50 mM HEPES, pH 7.5 containing 0.01% (v/v) Triton X-100 as the assay buffer. LdtMt2 (100 nM) was treated with a range of inhibitor concentrations, and the mixture was incubated for 0, 10 or 60 minutes. Following this pre-incubation, fluorogenic probe 1 (25 μM)2 was added, and the mixture was incubated for a further 30 minutes. The fluorescence signal was then measured using a BMG Labtech PHERAstar FS with λex = 480 nm and λem = 520 nm using the bottom optic. All reactions were carried out in quadruplicate, and controls without inhibitor and without LdtMt2 were included. Inhibition results were normalised using the no inhibitor and no enzyme controls. Dose-response analysis was performed using Prism (GraphPad) with the log(inhibitor) vs normalized response -- variable slope model. Data points were plotted as mean average with the standard deviation as the […]
Mass spectrometric analyses were performed using an Agilent 6550 system equipped with a RapidFire sampler. Samples (100 µL) were prepared in 50 mM Tris, pH 7.5, consisting of 3 µM LdtMt2 and either 6 µM or 30 µM of the relevant inhibitor, as […]
Purified LdtMt2 Δ1-55 (approx. 1 mM; His-tag cleaved) in 50 mM Tris, pH 8.0, 100 mM NaCl was used for crystallography. Crystallisation trials were set up using the sitting drop vapour diffusion method with the JCSG+ broad screen (Molecular Dimensions). A structure of LdtMt2 Δ1-55 (PDB 6RLG) was solved using a crystal […]
Figure S3. MS analysis of the apparent covalent adducts formed with LdtMt2 and the cysteine-reactive inhibitors. […]
conditions used for mass spectrometry are described in the Experimental Details […]
(1 picture or pasted object on this page, not shown here)

Row | Structure (SMILES) | time to complete reaction (adduct formation) with LdtMt2
28 | O=C1C=CC(=O)N1 [Compound 3, Maleimide] | > 82 min
29 | O=c1c2ccccc2[se]n1-c1ccccc1 [Compound 4, Ebselen] | ≤ 1 min
30 | CN(C)C(=S)SSC(=S)N(C)C [Compound 8, Thiram] | ≤ 45 min
31 | c1ccc(SSc2ccccn2)nc1 [Compound 9, Aldrithiol] | ≤ 10 min

same assay, conditions: after 24 hours, RapidFire MS

Row | Structure (SMILES) | stability of covalent complex with LdtMt2
32 | CN(C)C(=S)SSC(=S)N(C)C [Compound 8, Thiram] | a small amount of unbound protein was observed
33 | C[C@@H](O)[C@H]1C(=O)N2C(C(=O)O)=C([C@H]3CCCO3)S[C@H]12 [Compound 11, Faropenem] | a small amount of unbound protein was observed
